We go through one molecule from PMC5944846 (ACS chemical biology, 2018).

This assay concerns E. coli ATCC 25922. Description: MIC against E. coli ATCC 25922. Type of assay: cell-based. Conditions: Escherichia coli.

Converted amounts (≈) assume the structure as drawn. Where two headings read alike, the source gives them in different places.

In the case of `CN(C)[C@@H]1C(O)=C(C(N)=O)C(=O)[C@@]2(O)C(O)=C3C(=O)c4c(O)cccc4[C@@](C)(O)[C@H]3[C@H](O)[C@@H]12` [oxytetracycline], the MIC worked out at 8 µg/mL (ATCC25922, read-out: oxytetracycline + 32 μg/mL tyrobetaine MIC) and 4 µg/mL (≈ 8.69 µM) (ATCC25922, read-out: oxytetracycline MIC).
